Data reported in PubChem BioAssay (NCI).
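Grown in 96-well plates, cells were treated for 48 hours with each compound at five concentrations. Insufficient inhibition: endpoint recorded as highest concentration tested. GI50 marks 50% less growth. TGI denotes the concentration required for complete inhibition of growth.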

What was measured:
Experiment in all cases: growth of human tumour cells (NCI), 48 h
[1] = tested on: EKVX NSCLC
[2] = tested on: HOP-92 NSCLC
[3] = tested on: HT29 colon
[4] = tested on: MDA-MB-231 breast
[5] = tested on: OVCAR-5 ovarian
[6] = tested on: SF-295 CNS
[7] = tested on: SK-MEL-2 melanoma
[8] = tested on: SK-MEL-28 melanoma
[9] = tested on: SR leukemia
[10] = tested on: UACC-257 melanoma

Compound | TGI [1] [µM] | TGI [2] [µM] | TGI [3] [µM] | TGI [4] [µM] | TGI [5] [µM] | TGI [6] [µM] | TGI [7] [µM] | TGI [8] [µM] | TGI [9] [µM] | TGI [10] [µM] | GI50 [1] [µM] | GI50 [2] [µM] | GI50 [3] [µM] | GI50 [4] [µM] | GI50 [5] [µM] | GI50 [6] [µM] | GI50 [7] [µM] | GI50 [8] [µM] | GI50 [9] [µM] | GI50 [10] [µM]
CCOC(C[Se]CC(OCC)OCC)OCC | > 100 | > 100 | > 100 | > 100 | > 100 | > 100 | > 100 | > 100 | > 100 | > 100 |  |  |  |  |  |  |  |  |  | 
NCCC(N)C(=O)O (configuration not stated) | > 100 | > 100 | > 100 | > 100 | > 100 | > 100 | > 100 | > 100 | > 100 | > 100 |  |  |  |  |  |  |  |  |  | 
c1ccc2c(-c3cnc(-c4c[nH]c5ccccc45)cn3)c[nH]c2c1 | > 100 | > 100 |  | > 100 | > 100 | 50.4 | > 100 | > 100 | > 100 | > 100 |  |  |  |  |  |  |  |  |  | 
CC(=O)O[C@H]1CC[C@@]2(C)C(=CC[C@@H]3[C@@H]2CC[C@]2(C)C(c4cccnc4)=CC[C@@H]32)C1 | > 100 | 32.5 | 12.7 | 33.7 | > 100 | 8.35 | > 100 | > 100 | 8.35 | > 100 | 4.62 | 3.08 | 3.07 | 5.23 | 18.7 | 2.33 | > 100 | 3.53 | 3.01 | 28.1
CC(C)(C)OC(=O)n1cc(C2CNC(=O)C23CCC(=O)N3Cc2ccccc2)c2ccccc21 (configuration not stated) | 54.6 | 26.7 | 37.3 | 39.9 | 40.8 | 35.3 | 33.4 |  | > 100 | 65.2 |  |  |  |  |  |  |  |  |  | 
COC(=O)/C=C/c1ccccc1N=[S@](C)(=O)c1ccc(C)cc1 | > 100 | > 100 | > 100 | 94.4 | > 100 | 76.9 | 70.7 | > 100 | 26.7 | 56.8 |  |  |  |  |  |  |  |  |  | 
CC(=O)NNc1nc(C)c(C(/C=C/c2ccc3c(c2)OCO3)=N/Nc2ccccc2)s1 | > 100 | > 100 | > 100 | > 100 | > 100 | > 100 | > 100 | > 100 | > 100 | > 100 |  |  |  |  |  |  |  |  |  | 
CC(=O)OC[C@H]1O[C@@H](O[C@H]2[C@H](OC(C)=O)C=CO[C@@H]2COC(C)=O)C(OC(C)=O)[C@H]2OC(C)(C)O[C@H]21 (some centres not stated) | > 100 | > 100 | > 100 | > 100 | > 100 | > 100 |  | > 100 | > 100 | > 100 |  |  |  |  |  |  |  |  |  | 
Oc1ccc(Cl)cc1C1=N/C(=N\CN2CCN(C/N=C3/N=C(c4cc(Cl)ccc4O)CC(c4ccccc4)N3)CC2)NC(c2ccccc2)C1 (configuration not stated) | > 100 | > 100 | > 100 | > 100 | > 100 | 91.7 | > 100 | > 100 | > 100 | > 100 |  |  |  |  |  |  |  |  |  | 
O=C(Nc1sccc1S(=O)(=O)c1ccccc1)c1cccnc1 | > 100 | > 100 | > 100 | > 100 | > 100 | > 100 | > 100 | > 100 | > 100 | > 100 |  |  |  |  |  |  |  |  |  | 
Cc1ccc(C(=O)N(C2CCCCC2)C2CCCCC2)cc1N=NN(C)C | 32.3 | 23.4 | 16.6 | 25.7 | 38.2 | 23.5 | 7.29 | 17.9 | 76.7 | 28 |  |  |  |  |  |  |  |  |  | 
Cc1ccc([N+](=O)[O-])cc1S(=O)(=O)Nc1ccc(C2=NN(c3ccc([N+](=O)[O-])cc3[N+](=O)[O-])C(c3ccccc3)C2)cc1 (configuration not stated) | 34.6 | 35.9 | 37.6 | 33.4 | 50.1 | 35.9 | 33.7 | > 100 | 90 | 40.7 |  |  |  |  |  |  |  |  |  | 
CC(=O)Oc1ccc(/C=C/C(=O)O[C@@H](C)[C@H](C)OC(=O)/C=C/c2ccc(OC(C)=O)c(OC(C)=O)c2)cc1OC(C)=O | 79.7 | 58.2 |  | > 100 | 58.8 | 39.3 | > 100 | 77.7 | > 100 | 65.1 |  |  |  |  |  |  |  |  |  | 
C=CC[C@H]1[C@@H](O[Si](C)(C)C(C)(C)C)[C@H](n2ccc(=O)[nH]c2=O)O[C@@H]1CO[Si](C)(C)C(C)(C)C | 4.83 | 2.72 | 2.96 | 5.4 | 3.91 | 3.93 | 7.08 | 3.01 | 5.95 | 5.34 |  |  |  |  |  |  |  |  |  | 
Cc1c(-c2c(C)c3ccccc3n2S(=O)(=O)c2ccccc2)n(S(=O)(=O)c2ccccc2)c2ccccc12 | > 100 | > 100 | > 100 | > 100 | > 100 | > 100 | > 100 | > 100 | > 100 | > 100 |  |  |  |  |  |  |  |  |  | 
CCCC/C=C1\CCC(CN2CCCCC2)C1=O (configuration not stated) | 31.9 | 21 | 23.7 | > 100 | 49.9 | 45.5 | > 54.4 | 36.7 | > 24.7 | 42 |  |  |  |  |  |  |  |  |  | 
COc1ccc(CCn2cnc3ccccc32)cc1 | > 100 | > 100 | > 100 | > 100 | > 100 | > 100 | > 100 |  | > 100 | > 100 |  |  |  |  |  |  |  |  |  | 
COc1ccc(N(C(=O)Nc2ccc(Cl)c(Cl)c2)c2ccccc2)cc1 | > 10 | > 10 | > 10 | > 10 | > 10 | > 10 |  | > 10 | > 10 | > 10 |  |  |  |  |  |  |  |  |  | 
COc1cccc(N2C(=O)C3c4[nH]c5ccccc5c4C4c5ccccc5CCC4C3C2=O)c1 (configuration not stated) | > 10 | > 10 | > 10 | > 10 | > 10 | > 10 | > 10 | > 10 | > 4.01 |  |  |  |  |  |  |  |  |  |  | 
Cc1cnoc1NC1=CC(=O)C(=O)c2ccccc21 | > 100 | > 100 | 90 | > 100 | 55.9 | > 100 | 10.5 | > 100 | > 100 | 49.3 |  |  |  |  |  |  |  |  |  | 
C=CCC(C)C12CCNC(Cc3ccc(O)cc31)C2C (configuration not stated) | > 100 | > 100 | > 100 | > 100 | > 100 | > 100 |  | > 100 | > 100 | > 100 |  |  |  |  |  |  |  |  |  | 
